{
  "source": "patent US20190070157A1",
  "about": "“HYPERBARIC SOLUTION INJECTION OF LEVOBUPIVACAINE HYDROCHLORIDE COMPRISING LEVOBUPIVACAINE HYDROCHLORIDE” (NEON LABORATORIES LIMITED, priority 2015, published 2019)",
  "origin": "cited, not measured here",
  "settings": "animal studies, compared with bupivacaine",
  "data": [
    {"smiles": "CCCCN1CCCC[C@H]1C(=O)Nc1c(C)cccc1C", "note": "[Levobupivacaine]", "values": [
      {"measurement": "risk of cardiovascular and CNS toxicity", "value": "lower risk of cardiovascular and CNS toxicity than bupivacaine"}
    ]}
  ]
}
